This note sets out measurements from patent US7462629B2, “Immunosuppressant compounds and compositions” (IRM LLC, priority 2003, dated 2008).

SMILES strings stand for the structures.

One assay concerns the target T1, human EDG-1 (Homo sapiens, UniProt P21453).
T1 construct: expressed in transfected cells
Nature of the assay: EDG-1 (S1P1) GTP [γ-35S] binding assay, membranes from CHO cells. The format is biochemical. As to conditions: CHO membranes expressing human EDG-1. How it is done: (§1) A. In Vitro: GPCR Activation Assay Measuring GTP [γ-^35S] Binding to Membranes Prepared from CHO Cells Expressing Human EDG Receptors
EDG-1 (S1P1) GTP [γ-^35S] binding assay: Homogenized membranes are prepared from CHO cell clones stably expressing a human EDG-1 N-terminal c-myc tag. Cells are grown in suspension in two 850 cm^2 roller bottles for three or fours days before harvesting. The cells are centrifuged down, washed once with cold PBS, and resuspended in ≦20 ml of Buffer A (20 mM HEPES, pH 7.4, 10 mM EDTA, EDTA-free complete protease inhibitor cocktail [1 tablet/25 ml]). The cell suspension is homogenized on ice, using a Polytron homogenizer at 30000 rpm at three intervals of 15 seconds each. The homogenate is first centrifuged at 2000 rpm on a tabletop low speed centrifuge for 10 minutes. The supernatant, after passing through a cell strainer, is then re-centrifuged at 50,000×g for 25 minutes at 4° C. The pellet is resuspended into buffer B (15% glycerol, 20 mM HEPES, pH 7.4, 0.1 mM EDTA, EDTA-free complete protease inhibitor cocktail [1 tablet/10 ml]). Protein concentration of the prep is determined using the BCA Protein Assay kit (Pierce) using BSA as standard. The membranes are aliquoted and kept frozen at −80° C.
Solutions of test compounds ranging from 10 mM to 0.01 nM are prepared in DMSO. S1P is diluted in 4% BSA solution as positive controls. […]

Assay [1] has as its system EDG-3, EDG-5, EDG-6 and EDG-8. As to the kind of experiment: EDG-3, -5, -6 and -8 GTP [γ-35S] binding assays (selectivity versus EDG-1). The format is biochemical, human. On the procedure: as §1
For each membrane preparation, titration experiments are first run with S1P control to determine the optimal amount of membranes to be added per assay well. […] For example, 3-[6-(4-cyclohexyl-3-trifluoromethyl-benzyloxy)-3,4-dihydro-1H-isoquinolin-2-yl]-propionic acid (compound 9) has an EC50 of 0.2 nM in the above assay and is at least 1000 fold selective for EDG-1 compared to one or more of the other receptors including EDG-3, EDG-5, EDG-6 and EDG-8.

For the next assay, the system named is blood lymphocytes. As to the kind of experiment: Measurement of circulating lymphocytes (blood lymphocyte depletion). The format is in vivo, Mice (C57bl/6 male). As to conditions: Mus musculus, mice, oral gavage, blood collected 6 and 24 hours after administration, read-out: ED50 (effective dose for 50% of blood lymphocyte depletion). How it is done:
C. In Vivo: Screening Assays for Measurement of Blood Lymphocyte Depletion and Assessment of Heart Effect
Measurement of circulating lymphocytes: Compounds are dissolved in DMSO and diluted to obtain a final concentration of 4% DMSO (v/v, final concentration) and then further diluted in a constant volume of Tween80 25%/H2O, v/v. Tween80 25%/H2O (200 μl), 4% DMSO, and FTY720 (10 μg) are included as negative and positive controls, respectively. Mice (C57bl/6 male, 6-10 week-old) are administered 250-300 μL of compound solution orally by gavages under short isoflurane anesthesia.
Blood is collected from the retro-orbital sinus 6 and 24 hours after drug administration under short isoflurane anesthesia. Whole blood samples are subjected to hematology analysis. Peripheral lymphocyte counts are determined using an automated analyzer. Subpopulations of peripheral blood lymphocytes are stained by fluorochrome-conjugated specific antibodies and analyzed using a fluorescent activating cell sorter (Facscalibur). Two mice are used to assess the lymphocyte depletion activity of each compound screened. The result is an ED50, which is defined as the effective dose required displaying 50% of blood lymphocyte depletion.

T1 sequence (P21453 whole entry): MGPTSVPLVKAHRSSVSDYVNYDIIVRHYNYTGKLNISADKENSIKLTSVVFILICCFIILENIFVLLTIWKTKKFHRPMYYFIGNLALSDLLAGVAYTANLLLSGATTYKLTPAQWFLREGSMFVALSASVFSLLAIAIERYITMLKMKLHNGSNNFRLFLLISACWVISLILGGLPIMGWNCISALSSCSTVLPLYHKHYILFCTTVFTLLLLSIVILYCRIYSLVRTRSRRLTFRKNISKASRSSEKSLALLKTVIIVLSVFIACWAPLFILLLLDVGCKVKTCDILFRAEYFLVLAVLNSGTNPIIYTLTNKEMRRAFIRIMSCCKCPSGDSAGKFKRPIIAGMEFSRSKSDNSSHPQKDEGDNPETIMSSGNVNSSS

As for `O=C(O)CCN1CCc2cc(OCc3ccc(C4CCCCC4)c(C(F)(F)F)c3)ccc2C1` [Compound 9, 3-[6-(4-cyclohexyl-3-trifluoromethyl-benzyloxy)-3,4-dihydro-1H-isoquinolin-2-yl]-propionic acid], the EC50 (commonly the concentration giving half of the maximal effect) on human EDG-1 was 0.2 nM. Moreover, in assay [1], the “selectivity for EDG-1 compared to one or more of EDG-3, EDG-5, EDG-6 and EDG-8” value is given as “at least 1000 fold”. In addition, in the assay on blood lymphocytes, the ED50 (in general, the midpoint of the dose-response relation) stood at 0.2 mg/kg.
